The values that follow come from ChEMBL document CHEMBL1629509, “Design, synthesis and inhibitory activity against Mycobacterium tuberculosis thymidine monophosphate kinase of acyclic nucleoside analogues with a distal imidazoquinolinone” (Eur J Med Chem, 2010).

Molecules are shown by their SMILES. Activity calls are given as the source filed them. No cut-off for these calls is given here.

The test system of the test is Mycobacterium tuberculosis variant bovis BCG. The experiment in a line: Antimycobacterial activity against Mycobacterium bovis BCG Pasteur assessed as growth inhibition at 160 ug/ml by resazurin microtiter plate assay. It counts as functional, organism-based. Background: Resazurin is reduced to fluorescent resorufin, in cell work by metabolically active cells.
With `O=c1[nH]c(=O)n(C/C=C/CN2c3cccc4c3N(CCC4)S2(=O)=O)cc1Br`, the outcome was inactive.

Regarding `Cc1cn(C/C=C/CN2c3cccc4c3N(CCC4)S2(=O)=O)c(=O)[nH]c1=O`, the outcome was inactive.

As for `CC(=O)NC1Cc2cccc3c2n(c(=O)n3C/C=C/Cn2cc(C)c(=O)[nH]c2=O)C1` (configuration not stated), the result was inactive.

On to `Cc1cn(C/C=C/Cn2c(=O)n3c4c(cc(N)cc42)CCC3)c(=O)[nH]c1=O`, for which the result was inactive.

On to `CC(=O)Nc1cc2c3c(c1)n(C/C=C/Cn1cc(C)c(=O)[nH]c1=O)c(=O)n3CCC2`, for which the outcome was inactive.

Take `Cc1cn(C/C=C/Cn2c(=O)n3c4c(cccc42)CCC3)c(=O)[nH]c1=O`: the result was inactive.

On to `Cc1cn(C/C=C/Cn2c(=O)n3c4c(cccc42)CC(N)C3)c(=O)[nH]c1=O` (configuration not stated), for which the result was inactive.
